Measured values as given in patent US6872557B1, “Gene encoding novel human secretory phospholipase A2” (Shionogi & Co., Ltd., priority 1999, dated 2005).

Experiments:
[1] = biological target: T1, IIA type secretory type PLA2 (Homo sapiens, UniProt P14555); conditions: already reported, Yokota et al., Biochim. Biophys. Acta (1999) 1438, 213-222; cited from earlier work
T1 sequence (P14555 21-144): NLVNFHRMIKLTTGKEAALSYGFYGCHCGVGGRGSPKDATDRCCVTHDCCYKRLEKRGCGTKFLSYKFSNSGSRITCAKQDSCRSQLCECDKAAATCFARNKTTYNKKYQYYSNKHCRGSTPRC

[2] = biological target: IB type secretory type PLA2 (Homo sapiens, UniProt P04054); conditions: already reported, Yokota et al., Biochim. Biophys. Acta (1999) 1438, 213-222; cited from earlier work
[3] = biological target: T2, human IID type secretory PLA2 (Homo sapiens, UniProt Q9UNK4); assay: Inhibition of secretory PLA2 activity, release of 14C-oleic acid from 14C-POPC; type: biochemical; conditions: 14C-POPC substrate, 40° C., 60 min, various concentrations of Indoxam; FIG. 4
T2 construct: made in house
T2 sequence (Q9UNK4 21-145): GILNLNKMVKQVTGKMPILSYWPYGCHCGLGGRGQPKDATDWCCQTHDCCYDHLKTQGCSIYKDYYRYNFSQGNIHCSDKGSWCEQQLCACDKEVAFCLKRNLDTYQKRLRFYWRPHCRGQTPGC
Protocol: (§1) Inhibitory activity against this novel type of human secretory type PLA2 was determined with Indoxam that is a 1-oxamoylindolidine derivative. It has already been reported that Indoxam inhibits the enzymatic activities of IIA type and IB type secretory type PLA2 (Yokota et al., Biochim. Biophys. Acta (1999) 1438, 213-222). The PLA2 activities were determined by the measurement of the quantity of released ^14C-oleic acid from ^14C-labeled 1-palmitoyl-2-oleoyl-phosphatidylcholine (POPC), according to the Draheim et al.'s method (J. Med. Chem., (1996) 39, 5159-5175). In the solution composed of 50 mM Tris-HCl (pH 8.0), 200 mM NaCl, 2 mM CaCl2, and 1 mg/ml bovine serum albumin, the substrates composed of 1 mM POPC (the mixture of about 100,000 cpm ^14C-POPC and unlabeled POPC) and 3 mM deoxycholic acid were incubated with each secretory PLA2 in the presence of various concentrations of Indoxam at 40° C. for 60 min. Then, the quantity of released ^4C-oleic acid was measured. Purified materials were used in the case with human IB type (2 ng), IIA type (10 ng) and X type (4 ng). Human V type, IID type and the secretory type PLA2 of this invention (IIE type) were prepared from the culture supernatant of CHO cells that stably express them.
(§2) The quantity of released ^14C-oleic acid from ^14C-POPC by each human secretory type PLA2 in the absence of Indoxam was regarded as 100% and the quantity of released ^14C-oleic acid in the presence of each concentration of Indoxam was shown as %.

[4] = biological target: T3, human secretory type PLA2 of this invention (IIE type) (Homo sapiens, UniProt Q9NZK7); assay: as above; type: biochemical; conditions: 14C-POPC substrate, 40° C., 60 min, various concentrations of Indoxam; FIG. 4
T3 construct: made in house
T3 sequence (Q9NZK7 20-142): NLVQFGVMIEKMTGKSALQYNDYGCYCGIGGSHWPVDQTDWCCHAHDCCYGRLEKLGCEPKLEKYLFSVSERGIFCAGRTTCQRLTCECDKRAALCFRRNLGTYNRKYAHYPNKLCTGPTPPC
Protocol: as §1, §2

[5] = biological target: T4, human IIA type secretory PLA2 (Homo sapiens, UniProt P14555); assay: as above; type: biochemical; conditions: 14C-POPC substrate, 40° C., 60 min, various concentrations of Indoxam; FIG. 4
T4 sequence (P14555 21-144): T1 sequence (P14555 21-144)
Protocol: as §1, §2

IB type secretory type PLA2, sequence (P04054 23-148): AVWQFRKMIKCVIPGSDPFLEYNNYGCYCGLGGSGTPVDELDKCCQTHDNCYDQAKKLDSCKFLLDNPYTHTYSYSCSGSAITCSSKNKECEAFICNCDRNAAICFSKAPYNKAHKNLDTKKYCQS

In the case of `CCc1c(C(=O)C(N)=O)c2c(OCC(=O)O)cccn2c1Cc1ccccc1-c1ccccc1` [Indoxam], the “inhibition of enzymatic activity of IIA type secretory type PLA2” value [1] is listed as “inhibits”, the “inhibition of enzymatic activity of IB type secretory type PLA2” value [2] is listed as “inhibits” and the “inhibition of enzymatic activity of human IID type PLA2” value [3] is listed as “strongly inhibits”. The “inhibition of enzymatic activity of human PLA2 of this invention (IIE type)” value [4] was “strongly inhibits” and the “inhibition of enzymatic activity of human IIA type PLA2” value [5] was “strongly inhibits”.
